Laboratory results as given in paper PMC8779831, “Enzyme-Responsive Amphiphilic Peptide Nanoparticles for Biocompatible and Efficient Drug Delivery” (Pharmaceutics, 2022).

Legend:
[1] = Dynamic light scattering (DLS) size of peptide nanoparticles; assay type: physicochemical; conditions: empty peptide nanoparticles 0.5 mg/mL, Tables S1 and S2, mean ± SEM (n=3)
Experimental: (§1) The size of the peptide nanoparticles at concentrations of 0.5 mg/mL was analyzed by dynamic laser light scattering (DLS) with ELS-Z2 (Photal, Otsuka Electronics Co., Ltd., Otsuka, Japan) and a Nano-ZS (Malvern Instruments Ltd., London, UK). The ξ-potential of the peptide nanoparticles was measured using a Nano-ZS. To confirm their stability, the LL and DD nanoparticles were monitored using a DLS instrument every 5 days for 30 days. The morphology of the LL peptide nanoparticles was measured using a field emission scanning electron microscope (FE-SEM). Thereafter, the dried samples of peptide nanoparticles were coated with osmium and analyzed by FE-SEM (Hitachi, Tokyo, Japan) under a 5–10 kV acceleration voltage. The self-assembled structure of the peptide nanoparticles was analyzed using CD spectroscopy (J-1000, Jasco, Hachioji, Japan). The LL and DD peptide nanoparticle solutions were measured in a quartz cuvette at wavelengths of 190 to 260 nm.
(§2) Doxorubicin (Dox) was encapsulated in the RH-(GFLG)3 peptide nanoparticles to evaluate their potential as drug delivery carriers. […] The prepared Dox-loaded RH-(GFLG)3 nanoparticles (LL-Dox, LD-Dox, DL-Dox, and DD-Dox) were stored at 4 °C, and their size diameter and ξ-potential were measured using DLS and zeta instruments of Nano ZS90 (Malvern, Worcestershire, UK) to confirm the formulation of the nanostructure.

[2] = ξ-potential of peptide nanoparticles (Nano-ZS); assay type: physicochemical; conditions: empty peptide nanoparticles; Tables S1 and S2; mean ± SEM (n=3); in mV (unit assumed)
Experimental: as §1, §2

[3] = FE-SEM morphology of peptide nanoparticles; assay type: physicochemical; conditions: dried samples, osmium coated, 5–10 kV
Experimental: as §1

[4] = Storage stability of nanoparticles monitored by DLS; assay type: physicochemical; conditions: DLS every 5 days for 30 days at 4 °C; mean ± SEM (n = 3)
Experimental: as §1

[5] = Critical aggregation concentration with Nile Red probe; assay type: physicochemical
Experimental: The critical aggregation concentration (CAC) value of the RH-(GFLG)3 nanoparticles was analyzed using the hydrophobic probe Nile Red. Briefly, the peptide nanoparticles were prepared at various concentrations ranging from 0.001 to 0.3 mg/mL to make a final volume of 1 mL. Then, the prepared nanoparticle solutions were mixed with 5 μL of 40 μM Nile Red solution in ethanol to a final concentration of 0.2 μM. The samples were dried to remove the ethanol using nitrogen gas stream and incubated for 1 h at room temperature (25 °C). After incubation, prepared samples were measured using fluorescence spectroscopy (PerkinElmer, Waltham, MA, USA) at an excitation wavelength of 515 nm and emission wavelengths of 550–750 nm. The CAC of the peptide nanoparticles was analyzed by fluorescence intensity at 650 nm.

HeLa cells [6] = assay: Cytotoxicity of peptide nanoparticles, WST-1 / MTT assay; assay type: cell-based; conditions: 24 h, highest concentration of 0.2 μg/μL, mean ± SEM (n = 3)
Experimental: (§3) The cytotoxicity of the RH-(GFLG)3 nanoparticles was examined using WST-1, LDH, and hemolysis assays. For the WST-1 assay, the HeLa cells were seeded to 1.0 × 10^4 cells/well in a 96-well microplate and incubated for 24 h. PEI 25kD and LL, LD, DL, and DD were prepared at various concentrations (0.025 to 0.2 μg/μL). PEI 25kD, a cationic polymer, was introduced as a positive control. After 24 h of incubation, 10 µL WST-1 was added to each well and incubated for 2 h. WST-1 formazan was measured using a VERASmax microplate reader (Molecular Devices, LLC, Sunnyvale, CA, USA) at an absorbance of 450 nm. For the LDH assay, 20% Tween-20 treated cells were examined as maximum LDH activated control to calculate the LDH activity (%) of samples. After 24 h incubation, 10 μL of the supernatant of each sample was collected and added to a working reagent containing 0.2 mM NADH and 2.5 mM sodium pyruvate in a 96-well microplate and incubated for 45 min at 37 °C. Finally, the LDH activity was quantified by measuring the absorbance at 490 nm using a microplate reader.

HeLa cells [7] = assay: LDH assay (membrane damage); assay type: cell-based; conditions: 24 h, 0.025–0.2 μg/μL, relative to 20% Tween-20 control
Experimental: as §3

human RBCs = assay: Hemolysis assay; assay type: cell-based; conditions: 0.1 and 0.2 μg/μL, 2 h at 37 °C, absorbance 450 nm, Triton X-100 0.2% as maximum
Experimental: The hemolysis of LL, LD, DL, and DD nanoparticles was investigated using human blood cells. PEI 25kD was introduced as a positive control. Briefly, fresh human blood was obtained from healthy volunteers. Coagulation of human blood was prevented using ethylenediaminetetraacetic acid (EDTA). The human blood was centrifuged at 5000 rpm for 5 min to separate the red blood cells (RBCs) from the serum. The isolated RBCs were washed twice using PBS and diluted to 2.0 × 10^8 cells/mL in PBS. To evaluate the hemolytic activity, Triton X-100 0.2% treated samples were used as the maximum hemolytic activity control. A 0.25 mL volume of the prepared RBCs was mixed with 0.25 mL of each sample (final concentration of 0.1 μg/μL and 0.2 μg/μL, respectively). The mixed samples were incubated for 2 h at 37 °C. After incubation, the samples were centrifuged at 5000 rpm for 5 min, and […] of the supernatant of each sample was collected. The supernatant was diluted 10-fold using PBS to a final volume of 100 μL. The prepared supernatant solution was added to a 96-well microplate and measured at 450 nm using a VERSAmax microplate reader (Molecular Devices, San Jose, CA, USA).

HeLa cells [8] = assay: Cellular uptake of Nile Red-tagged nanoparticles (confocal microscopy, FACS); assay type: cell-based; conditions: Nile Red-tagged nanoparticles 0.2 mg/mL, 6 h confocal microscopy (16 h FACS)
Experimental: The cellular uptake ability of the peptide nanoparticle was analyzed using confocal microscopy (Zeiss International, Oberkochen, Germany) and fluorescence-activated cell sorting (FACS) (BD Biosciences, San Jose, CA). For confocal microscopy assays, 1.0 × 10^4 cells/well were seeded in an 8-well confocal plate and incubated for 24 h. Nile Red-tagged LL, DL, DL, and DD peptide nanoparticles were treated to a final concentration of 0.2 mg/mL, and the cells were incubated for 6 h. After incubation, the cell nuclei were stained with 20 μM Hoechst 33324 for 15 min. The prepared cells were observed using confocal microscopy. In the FACS assay, 1.0 × 10^6 cells/well were seeded in 6-well microplate and incubated for 24 h. After incubation, the Nile Red-tagged peptide nanoparticles were treated to a final concentration of 0.2 mg/mL, and cells were incubated for 16 h. After incubation, the cells were washed twice using DPBS and harvested using trypsin-EDTA. The cells were collected by centrifugation (1500 rpm, 3 min) and resuspended in 500 μL of DPBS. The prepared samples were transferred to a FACS tube and analyzed using FACS.

cathepsin B = target: T1, cathepsin B (Homo sapiens, UniProt P07858); assay: Enzyme-responsiveness test with cathepsin B, MALDI-TOF MS; assay type: in vitro ADME; conditions: 0.02 μM cathepsin B in activation buffer, 37 °C, 6 h; versus control without enzyme
T1 construct: purchased Sigma-Aldrich (Seoul, Korea)
Experimental: The enzyme-responsive ability of RH-(GFLG)3 was analyzed using matrix assisted laser mass spectroscopy (MALDI-TOF, Voyager TOF Mass Spectrometer, Applied Biosystems Inc., Carlsbad, CA, USA). The LL, LD, DL, and DD peptides were treated with 0.02 μM of the enzyme cathepsin B in an activation buffer at 37 °C for 6 h. To compare enzyme-responsive ability, control groups without enzyme were treated identically in an activation buffer at 37 °C for 6 h. The prepared peptides were measured using MALDI-TOF (Voyager TOF Mass Spectrometer) in a α-cyano-4-hydroxycinnamic acid (CHCA) matrix.

HeLa cells [9] = assay: Anticancer effect, MTT assay in HeLa cells; assay type: cell-based; conditions: HeLa, 24, 48 and 72 h, peptide without Dox
Experimental: (§4) The anticancer activity of Dox-loaded peptide nanoparticles in HeLa and SW480 cells was determined with an MTT assay. Cells were seeded to 1.0 × 10^4 cells/well in a 96-well microplate and incubated for 24 h. After incubation, the cells were treated using Free Dox and Dox-loaded RH-(GLFG)3 nanoparticles to a final concentration of 0.25–2 μM and incubated for 24–72 h. After incubation, the prepared samples were analyzed following the method described above. To understand the anticancer effect in tissue, 3D spheroids of HeLa cells were prepared as described above. The prepared 3D spheroids were treated with 1 μM Free Dox, DD-Dox, and LL-Dox and incubated for 1–7 days. The morphology of the 3D spheroids was observed using an objective microscope every day. After 7 days of incubation, the viability of the spheroids was analyzed using an MTT assay. The spheroids were added to the MTT solution (2 mg/mL in DPBS) and incubated for 4 h. The supernatant was removed, and 150 μL of DMSO was added to each sample. The prepared samples were measured using a micro reader (Molecular Devices, San Jose, CA, USA) at an absorbance of 570 nm.

SW480 cells = assay: Anticancer effect, MTT assay in SW480 cells; assay type: cell-based; conditions: SW480, 24, 48 and 72 h, peptide without Dox
Experimental: as §4

HeLa cells [10] = assay: Cellular uptake of Dox-loaded nanoparticles, confocal microscopy; assay type: cell-based; conditions: 1 μM, 16 h (results text; method: 2 μM, 6 h)
Experimental: The cellular uptake of Dox-loaded RH-(GLFG)3 nanoparticles in HeLa cells was analyzed using confocal microscopy. HeLa cells were seeded to 1.0 × 10^4 cells/well in an 8-well confocal plate and incubated for 24 h. After incubation, the cells were treated using Free Dox, DD-Dox, and LL-Dox at a final concentration of 2 μM and incubated for 6 h. The nuclei of the cells were stained with 20 μM Hoechst 33324 for 15 min. The prepared cells were observed using confocal microscopy. To understand cellular uptake in tissue, we examined 3D spheroids of HeLa cells. For the formulation of the 3D spheroids, 1.0 × 10^4 cells were seeded in a round shaped 96-well plate coated with 1% agarose and incubated for 3 days. After incubation, the cells formed a globular shaped 3D tissue. The prepared 3D spheroids were treated using Free Dox, DD-Dox, and LL-Dox at a final concentration of 1 μM. The 3D spheroid medium was changed every 2 days for the tissue growth. After 7 days, the 3D spheroids were observed using confocal microscopy.

[11] = tested on: SW480 cells in zebrafish larvae; assay: In vivo anticancer capability in zebrafish cancer model; conditions: micro-injection, observed 2 days after injection
Experimental: To examine the anticancer activity of the Dox-loaded RH-(GLFG)3 nanoparticles in vivo, we generated zebrafish cancer models using the SW480 cell line. Briefly, zebrafish eggs were incubated in a fish incubator for 2 days and dechorionated. The SW480 cells were stained using cell fluorescence tracker (cell tracker green CMFDA) for 30 min in a cell culture incubator. The labeled cells were then harvested using trypsin-EDTA and washed twice with PBS containing 10% FBS. The labeled cells were then injected into zebrafish larvae by micro-injection. The larvae were split in 96-well microplates containing TAP-water. After 2 days of incubation, Free Dox and Dox-loaded RH-(GLFG)3 nanoparticles (LL-Dox and DD-Dox) were injected into zebrafish larvae by micro-injection. After 2 days of incubation, the larvae were anesthetized using 0.04% tricaine and observed under a fluorescence microscope (Leica DMi8, Wetzlar, Germany).

| Compound | Hydrodynamic diameter [1] [nm] | Polydispersity index (PDI) [1] | Ξ-Potential [2] | size of globular nanostructure in FE-SEM images [3] | nanoscale diameter during storage [4] | critical aggregation concentration (CAC) ([5]; Nile Red 0.2 μM, peptide 0.001–0.3 mg/mL, 1 h at 25 °C, fluorescence ex 515 nm, intensity at 650 nm) | CAC (printed in Figure 2E) ([5]; Nile Red probe, fluorescence at 650 nm) [µg/µL] | cytotoxicity (cell viability) (HeLa cells [6]) | LDH release (HeLa cells [7]) | hemolysis (human RBCs) | cellular uptake ability (HeLa cells [8]) | degradation by cathepsin B (peak at 1433 m/z in MALDI-TOF mass spectrum) (cathepsin B) | cytotoxicity of peptide control groups (HeLa cells [9]) | cytotoxicity of peptide control groups (SW480 cells) | cellular uptake ability of Dox (HeLa cells [10]) | anticancer effect on cell tracker labelled SW480 cells (fluorescence) [11] |
| --- | --- | --- | --- | --- | --- | --- | --- | --- | --- | --- | --- | --- | --- | --- | --- | --- |
| Arg-His-(Gly-Phe-Lue-Gly)3 [LL] | 118 ± 7.7 | 0.245 ± 0.010 | 30.1 ± 0.4 | smaller than 100 nm | less than 200 nm | around 0.02 mg/mL | 0.02 | negligible cytotoxicity | negligible LDH release | negligible hemolysis | higher uptake | no peak at 1433 m/z | negligible cytotoxicity | negligible cytotoxicity |  |  |
| COc1cccc2c1C(=O)c1c(O)c3c(c(O)c1C2=O)C[C@@](O)(C(=O)CO)C[C@@H]3O[C@H]1C[C@H](N)[C@H](O)[C@H](C)O1 [Free Dox, doxorubicin] |  |  |  |  |  |  |  |  |  |  |  |  |  |  | low cellular uptake ability | low anticancer effect |
